Assay results taken from ChEMBL document CHEMBL4828715, “Discovery, Structure-Activity Relationships, and In Vivo Evaluation of Novel Aryl Amides as Brain Penetrant Adaptor Protein 2-Associated Kinase 1 (AAK1) Inhibitors for the Treatment of Neuropathic Pain” (J Med Chem, 2021).

How the values were obtained:
[1] = Metabolic stability in mouse liver microsomes assessed as parent compound remaining at 0.5 uM incubated for 10 mins in presence of NADPH by LC-MS/MS analysis; format: ADME, Microsome; conditions: read-out: Stability
[2] = Metabolic stability in human liver microsomes assessed as parent compound remaining at 0.5 uM incubated for 10 mins in presence of NADPH by LC-MS/MS analysis; format: ADME, Microsome; conditions: read-out: Stability
[3] = Metabolic stability in rat liver microsomes assessed as parent compound remaining at 0.5 uM incubated for 10 mins in presence of NADPH by LC-MS/MS analysis; format: ADME, Microsome; conditions: read-out: Stability
[4] = molecular target: AP2-associated protein kinase 1 (Homo sapiens, UniProt Q2M2I8); experiment: Inhibition of recombinant GST-Xa-tagged human AAK1 (30 to 330 residues) using 5-FAM-labelled Alla-KEEQSQITSQVTGQIGWR-NH2 peptide as substrate incubated for 3 hrs in presence of ATP by electrophoretic analysis
Chain of AP2-associated protein kinase 1 (Q2M2I8 whole entry, the tested form may be a part): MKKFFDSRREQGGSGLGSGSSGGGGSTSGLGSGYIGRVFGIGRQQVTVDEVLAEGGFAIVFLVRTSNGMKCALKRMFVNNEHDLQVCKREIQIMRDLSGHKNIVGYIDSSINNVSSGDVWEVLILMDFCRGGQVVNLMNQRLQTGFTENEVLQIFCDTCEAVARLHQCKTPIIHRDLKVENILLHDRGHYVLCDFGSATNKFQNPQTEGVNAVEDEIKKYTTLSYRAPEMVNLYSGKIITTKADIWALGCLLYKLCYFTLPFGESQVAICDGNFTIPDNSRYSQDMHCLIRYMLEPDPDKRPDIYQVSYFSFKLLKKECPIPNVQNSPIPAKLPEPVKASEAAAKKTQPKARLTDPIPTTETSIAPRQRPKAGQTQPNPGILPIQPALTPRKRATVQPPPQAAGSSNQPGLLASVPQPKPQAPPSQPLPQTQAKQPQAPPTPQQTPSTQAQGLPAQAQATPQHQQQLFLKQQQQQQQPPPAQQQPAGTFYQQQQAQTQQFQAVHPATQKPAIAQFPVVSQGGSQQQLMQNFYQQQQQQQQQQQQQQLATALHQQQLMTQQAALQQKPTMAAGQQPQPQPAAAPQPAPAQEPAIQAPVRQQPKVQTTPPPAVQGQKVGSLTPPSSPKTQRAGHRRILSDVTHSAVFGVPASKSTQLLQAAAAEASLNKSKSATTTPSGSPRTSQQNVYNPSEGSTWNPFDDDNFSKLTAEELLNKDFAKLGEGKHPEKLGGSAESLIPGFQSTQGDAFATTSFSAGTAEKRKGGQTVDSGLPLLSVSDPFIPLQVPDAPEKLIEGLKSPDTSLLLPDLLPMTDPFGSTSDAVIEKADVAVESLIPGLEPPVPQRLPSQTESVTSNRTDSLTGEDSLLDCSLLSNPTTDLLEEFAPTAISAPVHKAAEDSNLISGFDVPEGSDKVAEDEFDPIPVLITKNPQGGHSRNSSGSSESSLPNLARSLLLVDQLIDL

Structure (SMILES)	remaining at 10 min, 0.5 µM [1]	remaining at 10 min, 0.5 µM [2]	remaining at 10 min, 0.5 µM [3]	IC50 [4]
CC(C)C[C@@H](N)C(=O)Nc1ccc(-c2cnco2)c(OC(F)(F)F)c1	53%	69%	79%	
CC(C)C[C@@H](N)C(=O)Nc1ccc(-c2cnco2)cc1	45%	87%	71%	170 nM
CC(C)C[C@@H](N)C(=O)Nc1ccc(-c2cnco2)c(C#N)c1	57%	64%	50%	72 nM
COc1cc(NC(=O)[C@H](N)CC(C)C)ccc1-c1cncs1	55%	75%	76%	190 nM
COc1cc(NC(=O)[C@H](N)CC2CCCCC2)ccc1-c1cnco1	78%	68%	63%	480 nM
COc1cc(NC(=O)[C@H](N)CC2CCC2)ccc1-c1cnco1	53%	70%	58%	33 nM
CCCC[C@@H](N)C(=O)Nc1ccc(-c2cnco2)c(OC)c1	65%	87%	76%	65 nM
COc1cc(NC(=O)[C@H](N)CC(C)(C)C)ccc1-c1cnco1	65%		76%	85 nM
CCC[C@@H](N)C(=O)Nc1ccc(-c2cnco2)c(OC)c1	49%	87%	63%	90 nM
COc1cc(NC(=O)[C@H]2CCCCN2)ccc1-c1cnco1	1%	94%	37%	550 nM
CC(C)C[C@@H](N)C(=O)Nc1ccc(-c2cnco2)c(F)c1	30%	78%	68%	43 nM
COc1cc(NC(=O)[C@H](N)[C@H](C)O)ccc1-c1cnco1	91%	85%	77%	410 nM
COc1cc(NC(=O)[C@H](N)CC2CC2)ccc1-c1cnco1	79%	100%	74%	45 nM
COc1cc(NC(=O)[C@H](N)CCC(C)C)ccc1-c1cnco1	80%	75%	62%	71 nM
COc1cc(NC(=O)Cc2ccccc2)ccc1-c1cnco1	70%	78%	70%	430 nM
CC[C@@H](N)C(=O)Nc1ccc(-c2cnco2)c(OC)c1	46%	81%	70%	120 nM
COc1cc(NC(=O)[C@H](N)CC(C)C)ccc1-c1cccnc1				10200 nM
COc1cc(N(C)C(=O)[C@H](N)CC(C)C)ccc1-c1cnco1				12800 nM
COc1cc(NC(=O)[C@@H](C)N)ccc1-c1cnco1	97%	100%	100%	1300 nM
COc1cc(NC(=O)[C@H](N)CC(C)C)ccc1-c1cncnc1				5700 nM
COc1cc(NC(=O)[C@H](N)C(C)C)ccc1-c1cnco1	40%	84%	42%	
COc1cc(NC(=O)C(CN)CC(C)C)ccc1-c1cnco1 (centres undefined)	78%	97%	63%	
COc1cc(NC(=O)[C@H](N)CC(C)C)ccc1-c1cnn(C)c1				3900 nM
COc1cc(NC(=O)[C@H](N)CC(C)C)ccc1-n1ccnc1	87%	92%	86%	
